From article PMC3532936 (Journal of biomolecular screening, 2011)
“And” between values parts separate entries of the source, which are not always exact repeats. Identical values can stand only once. Like-named read-outs stand apart in the source and are kept apart here.

What was measured:
YF CE [1] = target: T1, YF CE (Yellow fever virus, UniProt P03314); format: binding, yellow fever virus (strain 17D)
CE protein (YF or DEN) = settings: read-out: Ki for the displacement of GTP–BODIPY; competition assay; cited from earlier work
DEN2 CE = target: T2, DEN2 CE (Dengue virus type 2, UniProt P29990); format: binding, dengue virus 2 (strain 16681)
T2 sequence (P29990 2493-2755 limits assumed): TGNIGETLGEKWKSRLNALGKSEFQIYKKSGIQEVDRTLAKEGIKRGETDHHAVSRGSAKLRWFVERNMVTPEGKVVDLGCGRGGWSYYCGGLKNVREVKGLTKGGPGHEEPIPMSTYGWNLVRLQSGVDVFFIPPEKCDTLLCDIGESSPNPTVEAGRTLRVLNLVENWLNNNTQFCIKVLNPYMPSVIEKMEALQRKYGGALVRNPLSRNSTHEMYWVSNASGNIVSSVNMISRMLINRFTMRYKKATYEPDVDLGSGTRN

DEN CE = target: T3, DEN CE (Dengue virus type 2, UniProt P29990); format: biochemical
T3 sequence (P29990 2493-2755 limits assumed): T2 sequence (P29990 2493-2755 limits assumed)

YF CE [2] = target: T1, YF CE

T1 sequence (P03314 2507-2771 limits assumed): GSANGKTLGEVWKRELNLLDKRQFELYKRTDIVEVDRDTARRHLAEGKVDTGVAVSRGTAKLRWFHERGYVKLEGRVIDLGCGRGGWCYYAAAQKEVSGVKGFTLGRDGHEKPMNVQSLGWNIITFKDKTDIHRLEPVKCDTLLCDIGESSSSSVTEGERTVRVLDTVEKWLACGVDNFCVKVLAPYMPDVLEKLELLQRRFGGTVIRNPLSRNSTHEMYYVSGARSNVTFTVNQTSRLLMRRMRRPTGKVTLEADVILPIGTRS

Row | SMILES | average mP value of inhibition (YF CE [1]) | Ki (CE protein (YF or DEN)) [µM] | Percent Inhibition HTS (YF CE [1]) [%] | Ki (DEN2 CE; read-out: apparent Ki, FP, DEN) [µM] | Ki (DEN2 CE; read-out: apparent Ki, TF, DEN) [µM] | inhibition of guanylation (in words) (DEN CE) | IC50 (DEN CE; read-out: Guanylation IC50 DEN) [µM] | Ki (YF CE [2]; read-out: apparent Ki, FP, YF) [µM] | Ki (YF CE [2]; read-out: apparent Ki, TF, YF) [µM]
1 | Nc1nc2c(ncn2[C@@H]2O[C@H](COP(=O)(O)OP(=O)(O)OP(=O)(O)O)[C@@H](O)[C@H]2O)c(=O)[nH]1 [GTP, guanosine triphosphate, reference compound] | 42.4 ± 5.19 mP and 81.8 ± 6.09 mP | 0.04 |  |  |  |  |  |  | 
2 | Cc1ccc(C)n1C(Cc1c[nH]c2ccccc12)C(=O)O (stereo not drawn) [BAS 01211690] |  |  | 23 | 10.1 ± 1.3 | 9.1 ± 2.5 | weaker inhibition of guanylation | 78.9 ± 37.8 | 5.8 ± 0.5 | 5.8 ± 1.7
3 | Nc1ncnc2c1ncn2[C@@H]1O[C@H](COP(=O)(O)OP(=O)(O)OP(=O)(O)O)[C@@H](O)[C@H]1O [adenosine triphosphate (ATP), adenosine triphosphate] |  | 350 |  |  |  |  |  |  | 
4 | COC(=O)[n+]1ccc(N2CCOCC2)cc1 [BAS01531218] |  |  | 12 | 4.8 ± 1.5 | 2.6 ± 0.5 |  |  | 4.9 ± 1 | 6.2 ± 1.4
